The source of these data is US20260256702A1, “SUSTAINED ADJUNCT THERAPY TO IMPROVE CHEMOTHERAPY EFFICACY IN GLIOBLASTOMA IN A CEREBROVASCULA TUMOR-ON-A-CHIP MODEL” (Ohio State Innovation Foundation, priority 2022, published 2026).

The subject of this assay is human umbilical vein endothelial cells (HUVECs). Put plainly: Capillary tubule formation assay. It counts as cell-based. From the text:
We have developed a novel process that combines electrospinning, sintering, and salt leaching to create tunable capsules for long-term controlled release of a compound. The capsules enable high levels of therapeutic loading with preserved bioactivity due to the hollow core that is loaded post-processing without the typical loss seen during encapsulation procedures. The polymers in the device are biocompatible, biodegradable, and used for applications in drug delivery. Chitosan, a positively charged biopolymer was selected for the inner layer of the capsule to electrostatically interact with negatively charged proteins, peptides, and antibodies (e.g. anti-VEGF, αCT11) to slow release. Poly(caprolactone) (PCL) was selected for the outer layer of the device due to its hydrophobicity that slows hydrolytic degradation. Capsule inner diameters ranged from 0.26-1.7 mm, with average wall thickness of 90 μm. Scanning electron microscopy (SEM) was used to measure capsule dimensions and pore size (FIG. 5A). No pores were present after sintering when prepared without salts. Pore size increased from 237±97 nm to 609±274 nm for 1% to 10% salt concentrations, and elution was increased at >5% salt concentration due to pore interconnectivity. In preliminary studies, in vitro release of model protein BSA and anti-VEGF (bevacizumab) were evaluated. […]

“bevacizumab: anti-VEGF (149 kDa), released from capsules”: under “VEGF 5 ng/ml, 10 μg/ml bevacizumab released from capsules at time points out to 9 months”, the tubule formation entry is given as “tubule formation was inhibited”. In addition, for the setting “anti-VEGF released after 9 months, 5 ng VEGF”, the “tubule size versus fresh anti-VEGF control” value is recorded as “no significant difference in tubule size”.
